Our source for the MIC values is DBAASP.

Values after ≈ are worked out from the molar mass of the structure shown. Values joined by “and” are separate entries in the source; they are usually repeats but may differ in a detail not shown here. Identical values can stand only once. Where only a bound is given, the exact number is not on record here.

Some test systems named below: Bacillus megaterium; Micrococcus luteus; Aureobasidium pullulans; Escherichia coli MG1655.
Holding throughout (assay): ≥ marks a high value that may be exact or a test limit, other limits are often not marked, values filed in µg/mL are converted to µM
Assay [1] deals with Escherichia coli ATCC 25922.
Assay [2] concerns Corynebacterium glutamicum ATCC 13032.
For assay [3], the system named is Bacillus subtilis ATCC 23857.
The test system of assay [4] is Candida albicans ATCC 10231.
Assay [5] concerns Staphylococcus aureus ATCC 9144.
Assay [6] deals with Pseudomonas aeruginosa ATCC 27853.
Assay [7] relates to Candida tropicalis KCTC 7221.
The test system of assay [8] is Candida krusei CCARM 14017.
Assay [9] deals with Fusarium oxysporum KCTC 16909.
The subject of assay [10] is Candida parapsilosis CCARM 14016.
For assay [11], the system named is Fusarium verticillioides KCTC 6149.
In assay [12] the test system is Candida albicans KCTC 7270.
The test system of assay [13] is Candida albicans ATCC 90028.
For assay [14], the system named is Bacillus megaterium ATCC 13632.
Assay [15] relates to Staphylococcus aureus ATCC 29213.
The subject of assay [16] is Pseudomonas aeruginosa ATCC 15442.
The subject of assay [17] is Bacillus subtilis CCT 2576.
Assay [18] concerns Candida tropicalis ATCC 750.
The test system of assay [19] is Streptococcus pneumoniae ATCC 700677.
For assay [20], the system named is Staphylococcus aureus ATCC 43300.
The test system of assay [21] is Klebsiella pneumoniae ATCC 700603.
For assay [22], the system named is Bacillus subtilis ATCC 6051.
The test system of assay [23] is Staphylococcus aureus VRSA1.
In assay [24] the test system is Cryptococcus neoformans ATCC 208821.
Assay [25] has as its system Enterococcus faecium ATCC 35667.
The subject of assay [26] is Acinetobacter baumannii ATCC 19606.
Assay [27] concerns Staphylococcus aureus ATCC 6538.
In assay [28] the test system is Escherichia coli LMG 15862.
For assay [29], the system named is Pseudomonas aeruginosa LMG 6395.
In assay [30] the test system is Acinetobacter baumannii LMG 01041.
In assay [31] the test system is Klebsiella aerogenes LMG 02094.
For assay [32], the system named is Klebsiella pneumoniae LMG 20218.
Assay [33] deals with Klebsiella aerogenes ATCC 13048.
Assay [34] relates to Escherichia coli MG1655 ΔrecA.
The subject of assay [35] is Escherichia coli NEB5alpha.

By MIC is commonly meant the lowest concentration found to suppress growth. Higher therefore signals a less susceptible organism. Consider `C[C@H](NC(=O)[C@H](CCCCN)NC(=O)[C@H](Cc1c[nH]c2ccccc12)NC(=O)[C@H](Cc1c[nH]c2ccccc12)NC(=O)CNC(=O)[C@H](Cc1c[nH]c2ccccc12)NC(=O)[C@H](CCCCN)NC(=O)[C@H](CCCCN)NC(=O)CN)C(=O)N[C@@H](CCCCN)C(N)=O` [GKKWGWWKAK], for which the MIC in the assay on Bacillus megaterium was 0.785 µM (≈ 0.999 µg/mL); in assay [1], 49 µM (≈ 62.5 µg/mL); in assay [2], 3.06 µM (≈ 3.9 µg/mL); in assay [3] it was 3.06 µM (≈ 3.9 µg/mL); in the assay with Micrococcus luteus it was at least 49 µM; in assay [4] it was 49 µM (≈ 62.5 µg/mL). Further, the MIC was at least 49 µM against Aureobasidium pullulans, at least 196 µM in [5] and above 196 µM in assay [6].

As to `CC[C@H](C)[C@H](NC(=O)[C@H](C)NC(=O)[C@H](CCC(=O)O)NC(=O)[C@H](Cc1cnc[nH]1)NC(=O)[C@H](CCCCN)NC(=O)CNC(=O)[C@H](CCC(N)=O)NC(=O)[C@H](CCCCN)NC(=O)[C@@H](NC(=O)[C@H](CCCCN)NC(=O)[C@H](CCCCN)NC(=O)[C@H](CC(C)C)NC(=O)[C@H](C)NC(=O)[C@H](CC(N)=O)NC(=O)[C@H](CC(C)C)NC(=O)CN)C(C)C)C(=O)N[C@@H](CCCCN)C(=O)N[C@@H](CC(C)C)C(=O)N[C@H](C(=O)N[C@@H](CC(N)=O)C(=O)N[C@@H](CC(N)=O)C(=O)N[C@@H](Cc1cnc[nH]1)C(=O)N[C@H](C(=O)N[C@@H](CCC(N)=O)C(N)=O)C(C)C)[C@@H](C)CC` [GLNALKKVKQGKHEAIKLINNHVQ], the minimal inhibitory concentration (MIC) is 8 µM and 16 µM in assay [7]; ≥ 48 µM and 16 µM in [8]; 6 µM and 16 µM in [9]; at least 64 µM in assay [10]; at least 64 µM in assay [11]; at least 64 µM in [12].

For the molecule `CC[C@H](C)[C@H](N)C(=O)N[C@@H](CC(N)=O)C(=O)N[C@@H](Cc1c[nH]c2ccccc12)C(=O)N[C@@H](CC(C)C)C(=O)N[C@@H](CCCCN)C(=O)N[C@@H](CC(C)C)C(=O)NCC(=O)N[C@@H](CCCCN)C(=O)N[C@@H](C)C(=O)N[C@H](C(=O)N[C@H](C(=O)N[C@@H](CC(=O)O)C(=O)N[C@@H](C)C(=O)N[C@@H](CC(C)C)C(N)=O)[C@@H](C)CC)[C@@H](C)CC` [INWLKLGKAIIDAL], the MIC is 7.22 µM (≈ 11.3 µg/mL) in [13]; 2.55 µM (≈ 4 µg/mL) in assay [14]; 5.1 µM (≈ 8 µg/mL) in [15]; at least 164 µM in assay [16]; at least 151 µM in assay [17]; 1.28 µM (≈ 2 µg/mL) in [18]. Moreover, the MIC in assay [19] worked out at 5.1 µM (≈ 8 µg/mL); in assay [20], 5.1 µM (≈ 8 µg/mL); in [21], 81.6 µM (≈ 128 µg/mL); in assay [22] it was 2.55 µM (≈ 4 µg/mL); in [23], 3.61 µM (≈ 5.65 µg/mL); in assay [24] it was 2.55 µM (≈ 4 µg/mL). The minimum inhibitory concentration (MIC) in [25] was 3.61 µM (≈ 5.65 µg/mL); in [26], 5.1 µM (≈ 8 µg/mL); in assay [27], 122 µM (≈ 191 µg/mL); in assay [6], 115 µM (≈ 181 µg/mL).

On to `CC[C@H](C)[C@H](NC(=O)[C@H](CCCN=C(N)N)NC(=O)[C@H](CCC(N)=O)NC(=O)[C@@H](NC(=O)[C@@H](NC(=O)[C@@H](N)CCCN=C(N)N)[C@@H](C)CC)C(C)C)C(=O)N[C@@H](CCCCN)C(=O)N[C@@H](CCCCN)C(=O)N[C@@H](Cc1c[nH]c2ccccc12)C(=O)N[C@@H](CC(C)C)C(N)=O` [RIVQRIKKWL], for which the MIC in assay [28] is at least 32 µM; in assay [29], 16 µM (≈ 21.4 µg/mL); in assay [30] it was at least 128 µM; in assay [31], at least 256 µM; in [32], at least 64 µM.

Take `CC(C)C[C@H](NC(=O)CNC(=O)[C@H](C)NC(=O)[C@H](CCCN=C(N)N)NC(=O)[C@H](Cc1cnc[nH]1)NC(=O)[C@@H](NC(=O)[C@@H](N)CCCN=C(N)N)[C@@H](C)O)C(=O)N[C@@H](CCC(N)=O)C(=O)N[C@@H](Cc1ccccc1)C(=O)N1CCC[C@H]1C(=O)N[C@H](C(=O)NCC(=O)N[C@@H](CCCN=C(N)N)C(=O)N[C@H](C(=O)N[C@@H](Cc1cnc[nH]1)C(=O)N[C@@H](CCCN=C(N)N)C(=O)N[C@@H](CC(C)C)C(=O)N[C@@H](CC(C)C)C(=O)N[C@@H](CCCN=C(N)N)C(=O)N[C@@H](CCCCN)C(N)=O)C(C)C)C(C)C` [RTHRAGLQFPVGRVHRLLRK]: the MIC in the assay with Escherichia coli MG1655 is at least 32 µM; in assay [33] it was at least 64 µM; in assay [34], 16 µM (≈ 38.4 µg/mL).

On to `CC[C@H](C)[C@H](NC(=O)[C@H](C)NC(=O)CNC(=O)[C@H](CCCCN)NC(=O)[C@H](CCC(=O)O)NC(=O)[C@H](CCC(=O)O)NC(=O)[C@H](CC(=O)O)NC(=O)[C@H](CCC(=O)O)NC(=O)[C@H](CC(=O)O)NC(=O)[C@H](CCCN=C(N)N)NC(=O)CNC(=O)[C@H](CCC(N)=O)NC(=O)[C@H](CC(C)C)NC(=O)[C@H](CCCCN)NC(=O)[C@H](CC(=O)O)NC(=O)[C@@H](NC(=O)[C@@H](NC(=O)[C@H](Cc1cnc[nH]1)NC(=O)[C@H](CCCN=C(N)N)NC(=O)[C@H](CC(N)=O)NC(=O)[C@@H](N)C(C)C)[C@@H](C)CC)C(C)C)C(=O)N[C@H](C(=O)N[C@@H](CCCCN)C(=O)N[C@H](C(=O)N[C@@H](CCCCN)C(=O)NCC(=O)NCC(=O)N[C@@H](CC(C)C)C(=O)O)C(C)C)C(C)C` [VNRHIVDKLQGRDEDEEKGAIVKVKGGL], for which the minimum inhibitory concentration (MIC) in assay [22] and in assay [35] was at least 500 µM throughout.
